Experimental data published in patent publication US12297244B2, “Systems and methods for inhibiting γ-secretase production of amyloid-β peptides” (Rensselaer Polytechnic Institute, priority 2020, dated 2025).
Where two headings read alike, the source gives them in different places.

How the values were obtained:
[1] = target: T1, γ-secretase in the HeLa membrane (Homo sapiens, UniProt P05067); experiment: AlphaLISA γ-secretase assay with biotinylated Sb4 (APP sequence) substrate; assay type: biochemical; parameters: other: γ-secretase in HeLa membrane, Sb4 substrate; fused on or other part: Biotin label on Sb4; conditions: γ-secretase in HeLa membrane, Sb4 substrate
T1 sequence (P05067 whole entry, the tested form may be a part): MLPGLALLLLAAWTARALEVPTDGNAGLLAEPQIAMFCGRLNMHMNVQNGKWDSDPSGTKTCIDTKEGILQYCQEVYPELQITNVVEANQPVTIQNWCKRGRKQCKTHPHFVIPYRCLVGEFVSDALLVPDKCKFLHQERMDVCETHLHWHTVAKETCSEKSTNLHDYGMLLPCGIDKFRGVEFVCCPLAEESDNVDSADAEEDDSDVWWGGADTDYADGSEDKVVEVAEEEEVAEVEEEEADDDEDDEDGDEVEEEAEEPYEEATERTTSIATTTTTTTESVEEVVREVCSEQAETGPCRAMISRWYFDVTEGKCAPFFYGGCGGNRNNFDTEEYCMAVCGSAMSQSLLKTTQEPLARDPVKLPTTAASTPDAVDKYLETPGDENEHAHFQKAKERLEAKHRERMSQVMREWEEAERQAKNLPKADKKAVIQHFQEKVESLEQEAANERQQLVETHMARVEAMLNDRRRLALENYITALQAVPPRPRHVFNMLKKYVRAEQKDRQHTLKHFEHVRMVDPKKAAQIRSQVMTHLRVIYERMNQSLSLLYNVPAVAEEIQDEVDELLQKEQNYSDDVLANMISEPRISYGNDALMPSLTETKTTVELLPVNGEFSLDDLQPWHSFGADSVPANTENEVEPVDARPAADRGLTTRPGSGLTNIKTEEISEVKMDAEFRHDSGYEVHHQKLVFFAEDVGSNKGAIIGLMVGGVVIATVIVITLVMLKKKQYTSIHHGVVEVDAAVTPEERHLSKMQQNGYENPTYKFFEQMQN
From the text: (§1) Referring now to FIG. 1, and without wishing to be bound by theory, γ-secretase cleaves within the transmembrane domain of the amyloid precursor protein (APPTM) to release Aβ, which aggregates to form neurotoxic oligomers and fibrils. […] Formula III decreased the production of Aβ40 and Aβ42 by γ-secretase in a dose dependent manner (FIG. 2).

[2] = target: T1, γ-secretase in the HeLa membrane; experiment: as above; assay type: biochemical; parameters: fused on or other part: Biotin label on Sb4; conditions: from lower IC50 for Aβ42 than Aβ40
From the text: as §1

O=C(C=COc1ccc2ccccc2c1)c1ccc(F)cc1 [Formula III]
IC50 ([1]; read-out: IC50 for the inhibition of Aβ40 production): 3.9 µM
IC50 ([1]; read-out: IC50 for the inhibition of Aβ42 production): 1.9 µM
selectivity in inhibiting Aβ42 production over Aβ40 [2]: selectivity in inhibiting Aβ42 production over Aβ40
